{
  "source": "patent US11891348B2",
  "about": "“Cycloheptylamine derivatives as anti-diabetic agents” (UNITED ARAB EMIRATES UNIVERSITY, priority 2020, dated 2024)",
  "key": {"βTC6 cells": {"test_system": "βTC6 cells", "assay": "Insulin secretion by βTC6 cells, high range insulin Sandwich ELISA kit", "format": "cell-based", "conditions": "for insulin secretion compared to the basal control: absence of glucose; for insulin secretion compared to basal insulin secretion: presence of 2.8 mM glucose, 10^−15, 10^−12, and 10^−9 M", "protocol": "FIG. 2A is a bar graph showing the in vitro effects on insulin secretion of compound 2a at concentrations of 10^−15, 10^−12, and 10^−9 M, compared to control, in both the absence and presence of 2.8 mM glucose. Results are means of triplicates±SEM; * P<0.05, ** P<0.01, *** P<0.001, from relative basal control.\nThe secretion of insulin by βTC6 cells was measured using the high range insulin Sandwich ELISA kit. The 2.8 mM glucose gave a mild insulin response around 3000 pmol/l and was used in testing the effect of compounds 2a-d. […]"}, "[1]": {"test_system": "STZ-induced diabetic rats", "assay": "Fasting blood glucose (FBG) in Streptozotocin (STZ)-induced diabetic rats after oral administration", "format": "in vivo", "protocol": "FIG. 1A is a bar graph showing in vivo anti-hyperglycemic effect on fasting blood glucose levels over time, ranging from 0 minute to 480 minutes, and at 1440 minutes, in STZ-induced diabetic rats, comparing a dose of 1.0 μM/kg compound 2a with control. Results are means±SEM; n=6 rats; * P<0.05, ** P<0.01, vs. STZ control.\nFIG. 1B is a bar graph showing in vivo anti-hyperglycemic effect on fasting blood glucose levels over time, ranging from 0 minute to 480 minutes, and at 1440 minutes, in STZ-induced diabetic rats, comparing a dose of 1.0 μM/kg compound 2b with control. Results are means±SEM; n=6 rats; * P<0.05, ** P<0.01, vs. STZ control.\nFIG. 1C is a bar graph showing in vivo anti-hyperglycemic effect on fasting blood glucose levels over time, ranging from 0 minute to 480 minutes, and at 1440 minutes, in STZ-induced diabetic rats, comparing an oral dose of 1.0 μM/kg compound 2c with control. Results are means±SEM; n=6 rats; * P<0.05, ** P<0.01, vs. STZ control.\nFIG. 1D is a bar graph showing in vivo anti-hyperglycemic effect on fasting blood glucose levels over time, ranging from 0 minutes to 480 minutes, and at 1440 minutes, in STZ-induced diabetic rats, comparing a dose of 1.0 μM/kg compound 2d with control. Results are means±SEM; n=6 rats; * P<0.05, ** P<0.01, vs. STZ control.\nThese symptoms indicated the development of diabetes characterized by chronic and persistently elevated plasma glucose levels.\nCompound 2a was orally administrated to the treated groups of diabetic rats at a dose of 1.0 μM/kg. Glucose levels in their blood were followed over 8.0 hours. […] Compounds 2b-d were orally administrated to the treated groups of diabetic rats at a dose of 1.0 μM/kg. Blood glucose levels were monitored at 0, 30 minutes, 60 minutes, 2 hours, 4 hours, 6 hours, 8 hours, and then again at 24 hours."}, "[2]": {"conditions": "10^−15, 10^−12, and 10^−9 M tested"}},
  "note": "Entries after “also recorded” stand apart in the source; their conditions may differ. Where a name gives a salt, the structure may show the parent alone.",
  "data": [
    {"smiles": "c1cc(-c2cc[n+](C3CCCCCC3)cc2)ccn1", "note": "(as salt: chloride) [compound 6, 1-cycloheptyl-[4,4′-bipyridin]-1-ium chloride]", "values": [
      {"measurement": "melting point", "value": 102, "unit": "°C"}
    ]},
    {"smiles": "N=C(N)NC1CCCCCC1", "note": "(as salt: hydrochloride) [compound 10, 1-Cycloheptylguanidine hydrochloride]", "values": [
      {"measurement": "melting point", "value": 106, "unit": "°C"}
    ]},
    {"smiles": "O=C(Nc1cc(C(F)(F)F)cc(C(F)(F)F)c1)NC1CCCCCC1", "note": "[9a, 1-[3′,5′-Bis(trifluoromethyl)phenyl]-3-cycloheptylurea]", "values": [
      {"measurement": "melting point", "value": "169 to 170", "unit": "°C"}
    ]},
    {"smiles": "NC1CCCCCC1", "note": "[compound 2a, Cycloheptanamine Hydrochloride]", "values": [
      {"measurement": "insulin secretion compared to the basal control", "setting": "βTC6 cells; [2]", "value": "significantly stimulated"},
      {"measurement": "insulin secretion compared to the basal control", "setting": "βTC6 cells; concentrations of 10^−15 and 10^−12 M", "value": "significantly stimulated"},
      {"measurement": "insulin secretion compared to basal insulin secretion", "setting": "βTC6 cells; Hydrochloride", "value": "stimulated insulin secretions significantly"},
      {"measurement": "stimulation of insulin production", "setting": "βTC6 cells; summary statement, glucose condition not given", "value": "stimulation of insulin production"},
      {"measurement": "duration of significant reduction in blood glucose levels", "setting": "[1]; 1.0 μM/kg", "value": "at least 8 hours"},
      {"measurement": "time to significant reduction in blood glucose levels", "setting": "[1]; 1.0 μM/kg", "value": "≤ 1", "unit": "h"},
      {"measurement": "reduction in blood glucose levels compared to control diabetic rats", "setting": "[1]; oral dose of 1.0 μM/kg, followed over 8.0 hours, Hydrochloride", "value": "significant reduction; also recorded: reductions in blood glucose levels"}
    ]},
    {"smiles": "O=C(NC1CCCCCC1)C(=O)NC1CCCCCC1", "note": "[compound 8, N1,N2-dicycloheptyloxalamide]", "values": [
      {"measurement": "melting point", "value": 232, "unit": "°C"}
    ]},
    {"smiles": "Nc1nccc(NC(=O)NC2CCCCCC2)n1", "note": "[compound 9c, 1-(2′-Aminopyrimidin-4′-yl)-3-cycloheptylurea]", "values": [
      {"measurement": "insulin secretion compared to the basal control", "setting": "βTC6 cells; [2]", "value": "not to a statistically significant degree"},
      {"measurement": "insulin secretion compared to basal insulin secretion", "setting": "βTC6 cells", "value": "significant stimulation"},
      {"measurement": "melting point", "value": "139 to 141", "unit": "°C"}
    ]},
    {"smiles": "Nc1ccc(S(=O)(=O)NC(=O)NC2CCCCCC2)cc1", "note": "[compound 9d, 4-Amino-N-(cycloheptylcarbamoyl)benzenesulfonamide]", "values": [
      {"measurement": "insulin secretion compared to the basal control", "setting": "βTC6 cells; [2]", "value": "not to a statistically significant degree"},
      {"measurement": "insulin secretion compared to basal insulin secretion", "setting": "βTC6 cells", "value": "significant stimulation"},
      {"measurement": "melting point", "value": "235 to 236", "unit": "°C"}
    ]},
    {"smiles": "Cc1ccc(S(=O)(=O)NC(=O)NC2CCCCCC2)cc1", "note": "[compound 9f, N-(Cycloheptylcarbamoyl)-4-methylbenzenesulfonamide]", "values": [
      {"measurement": "insulin secretion compared to the basal control", "setting": "βTC6 cells; [2]", "value": "not to a statistically significant degree"},
      {"measurement": "insulin secretion compared to basal insulin secretion", "setting": "βTC6 cells", "value": "significant stimulation"}
    ]},
    {"smiles": "N=C(N)NC1CCCCCC1", "note": "[compound 10, 1-Cycloheptylguanidine hydrochloride]", "values": [
      {"measurement": "insulin secretion compared to the basal control", "setting": "βTC6 cells; [2]", "value": "not to a statistically significant degree"},
      {"measurement": "insulin secretion compared to basal insulin secretion", "setting": "βTC6 cells", "value": "significant stimulation"}
    ]},
    {"smiles": "Cl.N=C(N)/N=C(\\N)NC1CCCCCC1", "note": "[compound 11, (E)-Amino[(amino(cycloheptylamino)methylene)amino]methaniminium chloride]", "values": [
      {"measurement": "insulin secretion compared to the basal control", "setting": "βTC6 cells; [2]", "value": "not to a statistically significant degree"},
      {"measurement": "insulin secretion compared to basal insulin secretion", "setting": "βTC6 cells", "value": "significant stimulation"},
      {"measurement": "melting point", "value": 283, "unit": "°C"}
    ]}
  ]
}
